Source: US20230081720A1, “MCL-1 INHIBITOR ANTIBODY-DRUG CONJUGATES AND METHODS OF USE” (NOVARTIS AG, priority 2019, published 2023)
Numbering of substitutions follows the chain as printed. Where two headings read alike, the source gives them in different places. One block for each molecule: values may come before it.

Legend:
Mcl-1 protein = Mcl-1 protein (Homo sapiens, UniProt Q07820); assay: Inhibition of Mcl-1 by fluorescence polarization (FP); format: binding; settings: fluorescein-labelled ligand 1 nM, Mcl-1 protein 5 nM
Experimental: The relative binding potency of each compound was determined via Fluorescence Polarization (FP).
An 11-point serial dilution of each compound was prepared in DMSO and 2 PI transferred into flat bottomed, low binding, 384-well plate (final DMSO concentration 5%). 38 μl of buffer (10 mM 4-(2-hydroxyethyl)-1-piperazineethanesulfonic acid [HEPES], 150 mM NaCl, 0.05% Tween 20, pH 7.4), containing the fluorescein-labelled ligand (final concentration 1 nM) and Mcl-1 protein (final concentration 5 nM) was then added.

[1] = test system: NCI-H929 multiple myeloma cell line; assay: In vitro cytotoxicity, Microculture Tetrazolium Assay (MTT); format: cell-based; settings: Homo sapiens; NCI-H929 cells, 48 hours
Experimental: Cytotoxicity studies were carried out on the NCI-H929 multiple myeloma cell line. The cells were distributed onto microplates and exposed to the test compounds for 48 hours.

NOMO-1 = format: cell-based
Experimental: (§1) Cell lines were cultured in media that is optimal for their growth at 5% CO2, 37° C. in a tissue culture incubator. Prior to seeding for the proliferation assay, the cells were split at least 2 days before the assay to ensure optimal growth density. […] Cell viability and cell density were determined using a cell counter (Vi-Cell XR Cell Viability Analyzer, Beckman Coulter). […] Cells were seeded at a density of 1,000 cells per well in 45 μL of standard growth media. Plates were incubated at 5% CO2, 37° C. overnight in a tissue culture incubator. […] Each drug concentration was tested in quadruplets. […] Plates were incubated at room temperature for 10 minutes to stabilize luminescent signals prior to reading using a luminescence reader (EnVision Multilabel Plate Reader, PerkinElmer). To evaluate the effect of the drug treatments, luminescent counts from wells containing untreated cells (100% viability) were used to normalize treated samples.

EOL-1 = format: cell-based
Experimental: as §1

MONO-MAC-1 = format: cell-based; settings: CD74 ADC with the named linker-payload, 5 days
Experimental: as §1

soluble cyno CD74 (cyno) = assay: SPR, Biacore 8K; IgG captured by anti-IgG Fc, soluble CD74 as analyte; 1:1 model, apparent kinetics
soluble human CD74 = biological target: T1, soluble human CD74 (human, UniProt P04233-2 73-232, limits assumed); assay: as above
T1 construct: CD74' flowed over as analyte; also called human CD74 protein
T1 sequence (looked up): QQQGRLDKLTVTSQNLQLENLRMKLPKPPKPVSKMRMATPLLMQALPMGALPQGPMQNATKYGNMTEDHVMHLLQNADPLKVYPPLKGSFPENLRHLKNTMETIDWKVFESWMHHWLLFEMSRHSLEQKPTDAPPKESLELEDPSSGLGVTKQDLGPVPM
Description: Double reference subtraction was completed to generate the final data.

[2] = CD74 ADC with the named linker-payload, 5 days
[3] = CD74 ADC with the named linker-payload, 5 days, read-out: NOMO-1 IC50
[4] = CD74 ADC with the named linker-payload, 5 days, read-out: EOL-1 IC50

Chain of Mcl-1 protein (Q07820 whole entry): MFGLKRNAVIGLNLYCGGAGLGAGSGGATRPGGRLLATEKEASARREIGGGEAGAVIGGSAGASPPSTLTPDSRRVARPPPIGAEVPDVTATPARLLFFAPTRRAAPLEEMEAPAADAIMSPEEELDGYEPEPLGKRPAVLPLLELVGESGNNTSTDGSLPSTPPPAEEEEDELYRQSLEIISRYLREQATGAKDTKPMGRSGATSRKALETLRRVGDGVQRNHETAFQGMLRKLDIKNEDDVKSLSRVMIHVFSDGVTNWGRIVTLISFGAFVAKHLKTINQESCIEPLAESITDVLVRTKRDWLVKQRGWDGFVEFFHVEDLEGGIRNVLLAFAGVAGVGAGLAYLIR
Chain of soluble cyno CD74 (cyno) (P04233 other isoform, or with tags, fused parts or gaps): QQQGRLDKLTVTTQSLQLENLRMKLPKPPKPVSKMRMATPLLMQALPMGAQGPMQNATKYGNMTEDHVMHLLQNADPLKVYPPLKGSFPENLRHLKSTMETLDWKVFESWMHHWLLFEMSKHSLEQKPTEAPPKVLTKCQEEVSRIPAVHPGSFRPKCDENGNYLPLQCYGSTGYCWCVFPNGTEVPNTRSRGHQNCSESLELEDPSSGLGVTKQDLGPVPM

IC50 (Mcl-1 protein): 3.4 nM
Molecule: COc1ccccc1-c1nccc(COc2ccccc2C[C@@H](Oc2ncnc3sc(-c4ccc(F)c(OCC(F)(F)F)c4)c(-c4ccc(OCCN5CCN(C)CC5)c(Cl)c4C)c23)C(=O)O)n1 [C10, (2R)-2-[(5Sa)-5-[3-chloro-2-methyl-4-[2-(4-methylpiperazin-1-yl)ethoxy]phenyl]-6-[4-fluoro-3-(2,2,2-trifluoroethoxy)phenyl]thieno[2,3-d]pyrimidin-4-yl]oxy-3-[2-[[2-(2-methoxyphenyl)pyrimidin-4-yl]methoxy]phenyl]propanoic Acid]
IC50 [1]: 13.5 nM

Molecule: COCCOCCOCCOCCOCCOCCOCCOCCOCCOCCOCCOCCOCCOCCOCCOCCC(=O)N(C)Cc1cc(NC(=O)[C@H](CCCNC(N)=O)NC(=O)[C@@H](NC(=O)CCOCCN2C(=O)C=CC2=O)C(C)C)ccc1C[N+]1(C)CCN(CCOc2ccc(-c3c(-c4ccc(F)cc4)sc4ncnc(O[C@H](Cc5ccccc5OCc5ccnc(-c6ccccc6OC)n5)C(=O)O)c34)c(C)c2Cl)CC1 [L31-P1]
IC50 (NOMO-1): 1.2 nM | NOMO-1 Amax (NOMO-1; [2]): 73.4 | IC50 (EOL-1): 0.466 nM | EOL-1 Amax (EOL-1; [2]): 83.98 | IC50 (MONO-MAC-1): 3.96 nM | MONO-MAC-1 Amax (MONO-MAC-1): 110.3

Molecule: COCCOCCOCCOCCOCCOCCOCCOCCOCCOCCOCCOCCOCCOCCOCCOCCn1cc(COCc2cc(NC(=O)[C@H](CCCNC(N)=O)NC(=O)[C@@H](NC(=O)CCOCCN3C(=O)C=CC3=O)C(C)C)ccc2C[N+]2(C)CCN(CCOc3ccc(-c4c(-c5ccc(F)cc5)sc5ncnc(O[C@H](Cc6ccccc6OCc6ccnc(-c7ccccc7OC)n6)C(=O)O)c45)c(C)c3Cl)CC2)nn1 [L34-P1]
NOMO-1 Amax (NOMO-1; [2]): 66.95 | IC50 (NOMO-1; [3]): 2.96 nM | EOL-1 Amax (EOL-1; [2]): 70.92 | IC50 (EOL-1; [4]): 0.736 nM | IC50 (MONO-MAC-1): 6.28 nM | MONO-MAC-1 Amax (MONO-MAC-1): 104.4

IC50 (Mcl-1 protein): 5.9 nM
Molecule: Cc1c(-c2c(-c3ccc(F)cc3)sc3ncnc(O[C@H](Cc4ccccc4OCc4ccnn4CC(F)(F)F)C(=O)O)c23)ccc(OCCN2CCN(C)CC2)c1Cl (atropisomer, axis not shown) [C12, (2R)-2-{[(5Sa)-5-{3-chloro-2-methyl-4-[2-(4-methylpiperazin-1-yl)ethoxy]phenyl}-6-(4-fluorophenyl)thieno[2,3-d]pyrimidin-4-yl]oxy}-3-(2-{[1-(2,2,2-trifluoroethyl)-1H-pyrazol-5-yl]methoxy}phenyl)propanoic Acid]

IC50 (Mcl-1 protein): 3 nM
Molecule: Cc1c(-c2c(-c3ccc(F)cc3)sc3ncnc(O[C@H](Cc4ccccc4OCc4ccnc(-c5cccc(OS(=O)(=O)O)c5)n4)C(=O)O)c23)ccc(OCCN2CCN(C)CC2)c1Cl [C8, (2R)-2-[(5Sa)-5-[3-chloro-2-methyl-4-[2-(4-methylpiperazin-1-yl)ethoxy]phenyl]-6-(4-fluorophenyl)thieno[2,3-d]pyrimidin-4-yl]oxy-3-[2-[[2-(3-sulfooxyphenyl)pyrimidin-4-yl]methoxy]phenyl]propanoic acid]
IC50 [1]: 574 nM

Molecule: COCCOCCOCCOCCOCCOCCOCCOCCOCCOCCOCCOCCC(=O)N(C)Cc1cc(NC(=O)[C@H](CCCNC(N)=O)NC(=O)[C@@H](NC(=O)CCOCCN2C(=O)C=CC2=O)C(C)C)ccc1C[N+]1(C)CCN(CCOc2ccc(-c3c(-c4ccc(F)cc4)sc4ncnc(O[C@H](Cc5ccccc5OCc5ccnc(-c6ccccc6OC)n5)C(=O)O)c34)c(C)c2Cl)CC1 [L32-P1]
NOMO-1 Amax (NOMO-1; [2]): 62.58 | IC50 (NOMO-1; [3]): 1.5 nM | EOL-1 Amax (EOL-1; [2]): 125 | IC50 (EOL-1; [4]): 0.16 nM | IC50 (MONO-MAC-1): 6.72 nM | MONO-MAC-1 Amax (MONO-MAC-1): 97.57

Molecule: COc1ccccc1-c1nccc(COc2ccccc2C[C@@H](Oc2ncnc3sc(-c4ccc(F)cc4)c(-c4ccc(OCCN5CC[N+](C)(Cc6ccc(NC(=O)[C@H](CCCNC(N)=O)NC(=O)[C@@H](NC(=O)CCOCCN7C(=O)C=CC7=O)C(C)C)cc6COCc6cn(CCOCCOCCOCCOCCOCCOCCOCCOCCOCCOCCOCCOCCC(=O)O)nn6)CC5)c(Cl)c4C)c23)C(=O)O)n1 [L33-P1]
IC50 (NOMO-1): 2.58 nM | NOMO-1 Amax (NOMO-1; [2]): 58.95 | IC50 (EOL-1): 0.62 nM | EOL-1 Amax (EOL-1; [2]): 66.96 | IC50 (MONO-MAC-1): 6.72 nM | MONO-MAC-1 Amax (MONO-MAC-1): 89.18

Molecule: COc1ccccc1-c1nccc(COc2ccccc2C[C@@H](Oc2ncnc3sc(-c4ccc(F)cc4)c(-c4ccc(OCCN5CC[N+](C)(Cc6ccc(NC(=O)[C@H](CCCNC(N)=O)NC(=O)[C@@H](NC(=O)CCOCCN7C(=O)C=CC7=O)C(C)C)cc6CN(C)C(=O)OC[C@H](NC(=O)CS(=O)(=O)O)C(=O)O)CC5)c(Cl)c4C)c23)C(=O)O)n1 [L77-P1]
IC50 (NOMO-1): 3.19 nM | NOMO-1 Amax (NOMO-1; [2]): 48.53 | IC50 (EOL-1): 0.383 nM | EOL-1 Amax (EOL-1; [2]): 102.6 | IC50 (MONO-MAC-1): 0.987 nM | MONO-MAC-1 Amax (MONO-MAC-1): 108.2

IC50 (Mcl-1 protein): 1.18 nM
Molecule: Cc1c(-c2c(-c3ccc(F)cc3)sc3ncnc(O[C@H](Cc4ccccc4OCc4ccnc(-c5ccccc5CO)n4)C(=O)O)c23)ccc(OCCN2CCN(C)CC2)c1Cl [C6, (2R)-2-{[(5Sa)-5-{3-chloro-2-methyl-4-[2-(4-methylpiperazin-1-yl)ethoxy]phenyl}-6-(4-fluorophenyl)thieno[2,3-d]pyrimidin-4-yl]oxy}-3-[2-({2-[2-(hydroxymethyl)phenyl]pyrimidin-4-yl}methoxy)phenyl]propanoic acid]

Molecule: COCCOCCOCCOCCOCCOCCOCCOCCOCCOCCOCCOCCOCCOCCOCCOCCOCCOCCOCCOCCOCCOCCOCCOCCC(=O)N(C)Cc1cc(NC(=O)[C@H](CCCNC(N)=O)NC(=O)[C@@H](NC(=O)CCOCCN2C(=O)C=CC2=O)C(C)C)ccc1C[N+]1(C)CCN(CCOc2ccc(-c3c(-c4ccc(F)cc4)sc4ncnc(O[C@H](Cc5ccccc5OCc5ccnc(-c6ccccc6OC)n5)C(=O)O)c34)c(C)c2Cl)CC1 [L30-P1]
IC50 (NOMO-1): 1.62 nM | NOMO-1 Amax (NOMO-1; [2]): 78.95 | IC50 (EOL-1): 0.251 nM | EOL-1 Amax (EOL-1; [2]): 197.6 | IC50 (MONO-MAC-1): 5.45 nM | MONO-MAC-1 Amax (MONO-MAC-1): 86.78

Molecule: COCCOCCOCCOCCOCCOCCOCCOCCOCCOCCOCCOCCOCCOCCOCCOCCOCCOCCOCCOCCOCCOCCOCCOCCn1cc(COCc2cc(NC(=O)[C@H](CCCNC(N)=O)NC(=O)[C@@H](NC(=O)CCOCCN3C(=O)C=CC3=O)C(C)C)ccc2C[N+]2(C)CCN(CCOc3ccc(-c4c(-c5ccc(F)cc5)sc5ncnc(O[C@H](Cc6ccccc6OCc6ccnc(-c7ccccc7OC)n6)C(=O)O)c45)c(C)c3Cl)CC2)nn1 [L5-P1]
IC50 (NOMO-1): 2.22 nM | NOMO-1 Amax (NOMO-1; [2]): 55.58 | IC50 (EOL-1): 1.02 nM | EOL-1 Amax (EOL-1; [2]): 75.06 | IC50 (MONO-MAC-1): 7.95 nM | MONO-MAC-1 Amax (MONO-MAC-1): 84.9

Kd (soluble cyno CD74 (cyno)): 16 nM | koff (soluble cyno CD74 (cyno)): 0.00088 s⁻¹ | kon (soluble cyno CD74 (cyno)): 56000 M⁻¹ s⁻¹ | Kd (soluble human CD74): 4.9 nM | koff (soluble human CD74): 0.00051 s⁻¹ | kon (soluble human CD74): 100000 M⁻¹ s⁻¹
B1: milatuzumab (antibody, V domains shown)
VH: QVQLQQSGSELKKPGASVKVSCKASGYTFTNYGVNWIKQAPGQGLQWMGWINPNTGEPTFDDDFKGRFAFSLDTSVSTAYLQISSLKADDTAVYFCSRSRGKNEAWFAYWGQGTLVTVSS
VL: DIQLTQSPLSLPVTLGQPASISCRSSQSLVHRNGNTYLHWFQQRPGQSPRLLIYTVSNRFSGVPDRFSGSGSGTDFTLKISRVEAEDVGVYFCSQSSHVPPTFGAGTRLEIK
notes: also called hLL1; WT IgG

Kd (soluble cyno CD74 (cyno)): 5.9 nM | koff (soluble cyno CD74 (cyno)): 0.00062 s⁻¹ | kon (soluble cyno CD74 (cyno)): 100000 M⁻¹ s⁻¹ | Kd (soluble human CD74): 0.91 nM | koff (soluble human CD74): 0.00018 s⁻¹ | kon (soluble human CD74): 200000 M⁻¹ s⁻¹
B2: VHmil x VK1aNQ (antibody, V domains shown)
VH: B1 VH
VL: DIVMTQTPLSLPVTPGEPASISCRSSQSLVHRNQNTYLHWYLQKPGQSPQLLIYTVSNRFSGVPDRFSGSGSGTDFTLKISRVEAEDVGVYFCSQSSHVPPTFGQGTKLEIK
notes: Tested as IgG; also called VHmil × VK1aNQ; hLL1 heavy chain with hzLL1-Vk1a (NQ) light chain

Kd (soluble cyno CD74 (cyno)): 26 nM | koff (soluble cyno CD74 (cyno)): 0.00077 s⁻¹ | kon (soluble cyno CD74 (cyno)): 30000 M⁻¹ s⁻¹ | Kd (soluble human CD74): 3.4 nM | koff (soluble human CD74): 0.00033 s⁻¹ | kon (soluble human CD74): 96000 M⁻¹ s⁻¹
B3: Hcmil x LCmil_NQ (antibody, V domains shown)
VH: B1 VH
VL: B1 VL with G34Q
notes: Tested as IgG; also called hLL1 heavy chain with hLL1 (NQ) light chain

Kd (soluble cyno CD74 (cyno)): 5.7 nM | koff (soluble cyno CD74 (cyno)): 0.00058 s⁻¹ | kon (soluble cyno CD74 (cyno)): 100000 M⁻¹ s⁻¹ | Kd (soluble human CD74): 0.85 nM | koff (soluble human CD74): 0.00018 s⁻¹ | kon (soluble human CD74): 210000 M⁻¹ s⁻¹
B4: Mil_HCx hzVk1a (antibody, V domains shown)
VH: B1 VH
VL: B2 VL with Q34G
notes: Tested as IgG; also called hLL1 heavy chain with hzLL1-Vk1a light chain

Kd (soluble cyno CD74 (cyno)): 5.1 nM | koff (soluble cyno CD74 (cyno)): 0.00058 s⁻¹ | kon (soluble cyno CD74 (cyno)): 110000 M⁻¹ s⁻¹ | Kd (soluble human CD74): 0.72 nM | koff (soluble human CD74): 0.00017 s⁻¹ | kon (soluble human CD74): 230000 M⁻¹ s⁻¹
B5: Mil_HCx hzVk1b (antibody, V domains shown)
VH: B1 VH
VL: B1 VL with I2V, Q3V, L4M, F41Y, A105Q, R108K
notes: Tested as IgG; also called hLL1 heavy chain with hzLL1-Vk1b light chain

Kd (soluble cyno CD74 (cyno)): 5.3 nM | koff (soluble cyno CD74 (cyno)): 0.00058 s⁻¹ | kon (soluble cyno CD74 (cyno)): 110000 M⁻¹ s⁻¹ | Kd (soluble human CD74): 0.76 nM | koff (soluble human CD74): 0.00016 s⁻¹ | kon (soluble human CD74): 220000 M⁻¹ s⁻¹
B6: VHmil x VK1bNQ (antibody, V domains shown)
VH: B1 VH
VL: B1 VL with I2V, Q3V, L4M, G34Q, F41Y, A105Q, R108K
notes: Tested as IgG; also called VHmil × VK1bNQ; hLL1 heavy chain with hzLL1-Vk1b (NQ) light chain
